# Measurements from publication PMC11799930, “Discovery of potent measles virus fusion inhibitor peptides via structure-guided derivatization” (RSC Medicinal Chemistry, 2025).
# Entries after “also recorded” stand apart in the source; their conditions may differ. Read-outs that look alike come from different tables or passages of the source. Where a SMILES comes first, the peptide text is derived from it. [ ]: non-standard residue; d: D form. The star is where a group is joined. Cbz = O=C(OCc1ccccc1)*; AEEA = NCCOCCOCC(=O)O
# Assays:
# MeV-F wild type = biological target: T1, MeV-F wild type (Measles virus, UniProt Q786F3); assay type: cell-based; details: qualitative; for inhibition of syncytia formation: 24 h
# T1 construct: wild-type full-length MeV-H (pCA7-ICH) and MeV-F; expressed in transfected cells; host or cells: Vero/hSLAM cells
# From the text: To obtain new interactions, we designed and synthesized FIP-NH2 derivatives in which Gly residue is replaced with a D-amino acid residue shown in Fig. 3a (FIP-G3x-NH2, x = d, e, h, k, n, q, r, s, t). To avoid proteolytic degradation of the derivatized peptides, D-amino acid residues were adopted. Because FIP consists of hydrophobic structures, polar residues were recruited for replacing the Gly residue to avoid poor aqueous solubility of the resulting derivatives. The inhibitory activities of the synthesized derivatives were evaluated by cell-to-cell fusion assay. In this assay, each FIP derivative was added to the medium of Vero/hSLAM cells transiently expressing MeV-F, MeV-H, and EGFP, and the cells were incubated at 37 °C for 24 h. The cells were observed under a fluorescence microscope, and inhibition of the syncytia formation was qualitatively assessed based on the size and area of emitting fluorescence (Fig. 3b). We also synthesized and evaluated the reverse sequence of FIP, FIP-rev (Z-Gly-Phe-D-Phe-OH), and the enantiomer of FIP, FIP-enan (Z-Phe-D-Phe-Gly-OH), as negative controls.
# Fig. 3 Chemical structures and cell-to-cell fusion assay of FIP and its derivatives using Vero/hSLAM cells expressing MeV-F and MeV-H. a) Chemical structures of FIP and its derivatives. b) A schematic illustration of cell-to-cell fusion assay. […] All the experiments were conducted in triplicate. […]
# (BZ-X710, keyence) after incubation for 48 h at 37 ℃.
# Cell-to-cell fusion assay using wild-type MeV-F plasmid. Vero/hSLAM cells in 96-well plate were transfected with 0.01 µg pCA7-ICH, 0.0375 µg pCA7-ICF and 0.3 µg pCA7 plasmid encoding EGFP (pCA7-EGFP) using VeroFect (0.695 µL, OZ Biosciences) in 10% FBS/DMEM when the confluency of the cells was about 90%. FIP or an FIP derivative in DMSO was added in each sample to 100 or 0.5 µM as the final […]
# concentration. […]
# MeV-EGFP [1] = details: viral entry inhibition assay; for IC50 / IC90: Vero/hSLAM cells, MeV-EGFP; for IC50: triplicate; for IC90: calculated from Hill coefficient and IC50
# Procedure: (§1) To evaluate how modifying the C-terminus of FIP affects the interactions of FIP and MeV-F, we synthesized three FIP derivatives, named FIP-G3A, FIP-G3a, and FIP-NH2 (Fig. 2a). The inhibitory activities of the derivatives were evaluated using a virus-mediated cell-to-cell fusion assay (Fig. 2b). In this assay, Vero cells stably expressing hSLAM (Vero/hSLAM cells)[21] were infected with EGFP-recombinant MeV (MeV-EGFP) for 1 h at 37 °C, then the medium containing MeV-EGFP was replaced with a medium containing each FIP derivative and incubated at 37 °C for 48 h. The inhibitory activity was assessed based on the size and area of the syncytia observed by fluorescence microscopy, albeit qualitatively. […] To more quantitatively compare the inhibitory activity of FIP and FIP-NH2 against MeV infection in cells, a viral entry inhibition assay was conducted using a serially diluted compound, and the IC50 and IC90 values of the compounds were determined. In this assay, Vero/hSLAM cells were infected with inhibitor-treated MeV-EGFP at 37 °C for 1 h. Subsequently, the supernatant was replaced with a medium containing 100 μM of FIP, and the cells were further incubated at 37 °C for 48 h. Finally, the number of virus-infected cells was quantified using fluorescence microscopy. […]
# pfu/well and incubated with peptide solution in 10% FBS/DMEM containing 0–1% DMSO for 30 min at room temperature. Vero/hSLAM cells were then infected with the inhibitor-treated MeV-EGFP for 1 h at 37 °C. The supernatant, including the virus, was replaced with 100 µM FIP (Peptide Institute, Inc. cat#4092) solution in 0–1% DMSO in 10% FBS/DMEM, and EGFP-positive cells were counted under fluorescence microscopy (BZ-X710, keyence) after incubation for 48 h at 37 ℃. The entry inhibition rate was calculated as 100 − (the number of sample EGFP positive cells − the number of cell-only control EGFP positive cells) / (the number of viral control EGFP positive cells − the number of cell-only control EGFP positive cells) × 100. This experiment was performed in triplicate. IC50 values were calculated using parameters determined by fitting the plot to a four-parameter logistic regression model (Hill equation) implemented in Python (Matplotlib and SciPy libraries). The equation used was: y = d + (a – d) / (1 + (x / c)b). x, y, a, b, c, and d represent peptide concentration, fraction of infected cells, maximum response, Hill coefficient (degree of cooperativity), IC50, and minimum response, respectively. Curve fitting was performed using the curve_fit function from the SciPy library, and IC90 values were calculated using the derived Hill coefficient and IC50 values. […]
# (BZ-X710, keyence) after incubation for 48 h at 37 ℃. […]
# MeV-EGFP [2] = assay: Virus-mediated cell-to-cell fusion assay (syncytia in Vero/hSLAM cells infected with MeV-EGFP); assay type: cell-based, Measles virus; details: 48 h, qualitative
# Procedure: as §1
# Virus-mediated cell-to-cell fusion assay. Vero/hSLAM cells were cultured in 96 well plates (Thermo scientific cat#167008) overnight at 37 ℃. Vero/hSLAM cells were then infected with MeV-EGFP (200 pfu / well) for 1 h. The supernatant, including the virus, was replaced with 10% FBS/DMEM with or without 1, 10, 100 µM FIP or a FIP derivative. The images of cell-to-cell fusion were captured by fluorescence microscopy (BZ-X710, keyence) after incubation for 48 h at 37 ℃.
# [3] = biological target: MeV-F (prefusion-stabilized ectodomain trimer); assay: Surface plasmon resonance (SPR) binding to MeV-F; design: species or system Measles virus; details: peptides (EG-K derivatives) immobilized on sensor chip, MeV-F as analyte, 25 °C
# [4] = 1 μM inhibitor in serum
# in vitro = details: bovine
# E471S mutant of MeV-F = biological target: T2, E471S mutant of MeV-F (Measles virus, UniProt Q786F3, E471S); assay: Cell-to-cell fusion assay using MeV-F E471S mutant; assay type: cell-based; details: Fig. 4e, qualitative
# T2 construct: Full-length E471S MeV-F was amplified through PCR and site-directed mutagenesis; expressed in transfected cells; host or cells: Vero cells per the methods
# From the text: To identify the plausible new interactions formed between FIP-G3r-NH2 and MeV-F, we conducted docking simulations using Autodock Vina.[22,23] First, we conducted a docking simulation of FIP and MeV-F to assess the reliability of the docking simulations (Fig. 4a). […] We then conducted a docking simulation of FIP-G3r-NH2 and MeV-F (Fig. 4c). We found a docking pose in which the binding conformation of the main chain and the aromatic ring of FIP-G3r-NH2 is similar to that of FIP (Fig. 4d). […] It should be noted that the MeV-F E471S mutant protein was synthetically produced for this experiment, and, to our knowledge, this mutant has not been reported as a natural variant. […]
# pfu/well and incubated with peptide solution in 10% FBS/DMEM containing 0–1% DMSO for 30 min at room temperature. […] The supernatant, including the virus, was replaced with 100 µM FIP (Peptide Institute, Inc. cat#4092) solution in 0–1% DMSO in 10% FBS/DMEM, and EGFP-positive cells were counted under fluorescence microscopy (BZ-X710, keyence) after incubation for 48 h at 37 ℃. The entry inhibition rate was calculated as 100 − (the number of sample EGFP positive cells − the number of cell-only control EGFP positive cells) / (the number of viral control EGFP positive cells − the number of cell-only control EGFP positive cells) × 100. […]
# physchem = assay type: physicochemical
# MeV = tested on: MeV; design: method as in PMID 7414950; details: plaque assay for MeV; cited from earlier work
molecule,measurement,setting,value
Cbz-Phe-[dF]-Gly-OH [FIP-enan],inhibition of syncytia formation,MeV-F wild type; 100 μM,lower inhibitory activity than FIP
NC(=O)CNC(=O)[C@H](Cc1ccccc1)NC(=O)[C@@H](Cc1ccccc1)NC(=O)OCc1ccccc1 [FIP-NH2] (Cbz-[dF]-Phe-Gly-NH2),IC50,MeV-EGFP [1],510 nM
same,IC90,MeV-EGFP [1],3600 nM
same,inhibition of syncytia formation,MeV-EGFP [2]; 1 μM,a little higher inhibitory activity than FIP
same,inhibitory activity against MeV-induced cell fusion compared with FIP,"MeV-EGFP [2]; 100, 10 or 1 μM",did not decrease the inhibitory activity
same,Kd,[3],81 nM
NCCCC[C@H](NC(=O)COCCOCCNC(=O)CNC(=O)[C@H](Cc1ccccc1)NC(=O)[C@@H](Cc1ccccc1)NC(=O)OCc1ccccc1)C(N)=O [FIP-NH-EG-K] (Cbz-[dF]FG[AEEA]K-NH2),Kd,[3],81 nM
Cbz-Gly-Phe-[dF]-OH [FIP-rev],inhibition of syncytia formation,MeV-F wild type; 100 μM,lower inhibitory activity than FIP
N=C(N)NCCC[C@@H](NC(=O)[C@H](Cc1ccccc1)NC(=O)[C@@H](Cc1ccccc1)NC(=O)OCc1ccccc1)C(=O)NCCOCCOCC(=O)N[C@@H](CCCCN)C(N)=O [FIP-G3r-NH-EG-K] (Cbz-[dF]F[dR][AEEA]K-NH2),Kd,[3],6.6 nM
N=C(N)NCCC[C@@H](NC(=O)[C@H](Cc1ccccc1)NC(=O)[C@@H](Cc1ccccc1)NC(=O)OCc1ccccc1)C(N)=O [FIP-G3r-NH2] (Cbz-[dF]-Phe-[dR]-NH2),IC50,MeV-EGFP [1],210 nM
same,IC90,MeV-EGFP [1],1800 nM
same,fold higher inhibitory activity than FIP (IC50),MeV-EGFP [1]; relative to FIP,about six-fold
same,inhibition of syncytia formation,MeV-F wild type; 0.5 μM,higher inhibitory activity than FIP-NH2; also recorded: completely inhibited the syncytia formation
same,membrane fusion inhibitory activity,"MeV-F wild type; MeV-F wild type (WT), Fig. 4e",higher membrane fusion inhibitory activity than FIP
same,proteolytic stability in serum,[4],high proteolytic stability
same,half-life at 1 μM,in vitro,> 24 h
same,membrane fusion inhibitory activity,E471S mutant of MeV-F,dropped to the same level as FIP
same,solubility,physchem,83 ± 4 µM
same,Kd,[3],6.6 nM
"O=C(O)CNC(=O)[C@H](Cc1ccccc1)NC(=O)[C@@H](Cc1ccccc1)NC(=O)OCc1ccccc1 [FIP, Z-D-Phe-Phe-Gly, reference compound] (Cbz-[dF]-Phe-Gly-OH)",IC50,MeV-EGFP [1],1300 nM
same,IC90,MeV-EGFP [1],12000 nM
same,inhibition of syncytia formation,MeV-F wild type; 0.5 μM,weakly inhibited syncytia formation
same,inhibition of syncytia formation,MeV-F wild type; 100 μM,strongly inhibited syncytia formation
same,proteolytic stability in serum,[4],high proteolytic stability
same,IC50,MeV,200 nM
same,half-life at 1 μM,in vitro,> 24 h
same,inhibition of syncytia formation,MeV-EGFP [2]; 1 μM,inhibited fusion only weakly
same,inhibition of syncytia formation,MeV-EGFP [2]; 10 μM,strongly inhibited syncytia formation
same,inhibition of syncytia formation,MeV-EGFP [2]; 100 μM,strongly inhibited syncytia formation
same,solubility,physchem,98 ± 1 µM
